Assay results reported in patent US6316623A, “Ethylenediamine compound libraries” (priority 1998, dated 2001).

test system: E. coli imp-; experiment: microbe, parasite or virus in culture; format: cell-based; conditions: Escherichia coli, 24 h, read-out: % inhibition of bacterial growth in culture
Protocol: In this assay, the strain E. coli imp-obtained from Spenser Bensen (Sampson, B. A., Misra, R. & Benson, S. A. (1989), Genetics, 122, 491-501, Identification and characterization of a new gene of Escherichia coli K-12 involved in outer membrane permeability) is used. To initiate the exponential phase of bacterial growth prior to the assay, a sample of bacteria was grown overnight at 37° C. in Luria broth and then used to reinoculate sample wells of 96-well microtiter plates. The assays were carried out in the 96-well microtiter plates in 150 μL volume with approximately 1×10^6 cells per well.
Bacteria in Luria broth (75 μL) was added to the compound mixtures in solution in 75 μL water in the individual well of the microtiter plate. Final concentrations of the compound mixtures were 25 μM, 10 μM and 1 μM. Each concentration of the compound mixtures were assayed in triplicate. The plates were incubated at 37° C. and growth monitored over a 24 hour period by measuring the optical density at 595 nm using a BioRad model 3550 UV microplate reader. The percentage of growth relative to a well containing no compound was determined. Ampicillin and tetracycline antibiotic positive controls were concurrently tested in each screening assay.

First: CC(C)(C)c1ccc(C(=O)N(CCNC(N)=O)CC2CCN(C(=O)CO)CC2)cc1 [compound 17927]
Second: CC(C)(C)c1ccc(C(=O)N(CCNC(N)=O)CC2CCCN(C(=O)CO)C2)cc1 (racemic) [compound 17959]
The inhibition at 500 µM of the first is higher: 96.3% for the first, 39.5% for the second.

Compared with `Cc1ccc(NC(=O)NCCN(C(=O)C2CC2)C2CCN(C(=O)Cc3ccccc3)C2)cc1` (racemic) [compound 17986], `O=C(NCCN(C(=O)CO)C1CCN(C(=O)Cc2ccccc2)C1)c1cnccn1` (racemic) [compound 18005] is higher in inhibition at 500 µM: 35.2% for the first, 61.1% for the second.

Compared with `CC(C)(C)c1ccc(C(=O)N(CCNC(=O)c2cnccn2)CC2CCCN(C(=O)Cc3ccccc3)C2)cc1` (racemic) [compound 17957], `CC(C)(C)c1ccc(C(=O)N(CCNC(=O)c2cnccn2)CC2CCN(C(=O)Cc3ccccc3)CC2)cc1` [compound 17925] is lower in inhibition at 500 µM: 95.7% for the first, 93.9% for the second.

Going from `CC(C)(C)c1ccc(C(=O)N(CCNC(=O)c2cnccn2)C2CCN(C(=O)Cc3ccccc3)C2)cc1` (racemic) [compound 17989] to `Cc1ccc(NC(=O)NCCN(CC2CCN(C(=O)CO)CC2)C(=O)c2ccc(N)cc2)cc1` [compound 17946], the inhibition at 500 µM rises from 38.5% to 98.7%.
